Measurements taken from ChEMBL document CHEMBL5505952, “Targeting SARS-CoV-2 entry processes: The promising potential and future of host-targeted small-molecule inhibitors” (Eur J Med Chem, 2024).

Tested on: SARS-CoV-2
Format: functional, organism-based
Details: Severe acute respiratory syndrome coronavirus 2, Vero C1008

CC(CN(C)C)CN1c2ccccc2Sc2ccccc21 (stereo unspecified) [METHYLPROMAZINE]
EC50: 2420 nM
